Test results: PubChem BioAssay (NCI)
Several values for one entry are separate records, joined by “and”; a condition that tells them apart may be missing. Identical values can stand only once.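 Cells were grown in 96-well plates and exposed to each compound for 48 hours at five concentrations; endpoints were interpolated linearly between bracketing concentrations, or set to the highest concentration if not reached. Abbreviation: GI50, concentration required for 50% inhibition of growth. TGI marks complete inhibition of growth.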

Columns and labels:
Assay in all cases: NCI tumour cell line growth inhibition, 48 h
SN12C renal = system: SN12C renal
NCI-H460 lung = system: NCI-H460 lung
SK-MEL-2 melanoma = system: SK-MEL-2 melanoma
HOP-92 NSCLC = system: HOP-92 NSCLC
SNB-75 CNS = system: SNB-75 CNS
OVCAR-4 ovarian = system: OVCAR-4 ovarian
HL-60(TB) leukemia = system: HL-60(TB) leukemia
UACC-62 melanoma = system: UACC-62 melanoma
HS 578T breast = system: HS 578T breast
NCI/ADR-RES ovarian = system: NCI/ADR-RES ovarian

SMILES | TGI (SN12C renal) | TGI (NCI-H460 lung) | TGI (SK-MEL-2 melanoma) | TGI (HOP-92 NSCLC) | TGI (SNB-75 CNS) | TGI (OVCAR-4 ovarian) | TGI (HL-60(TB) leukemia) | TGI (UACC-62 melanoma) | TGI (HS 578T breast) | TGI (NCI/ADR-RES ovarian) | GI50 (SN12C renal) | GI50 (NCI-H460 lung) | GI50 (SK-MEL-2 melanoma) | GI50 (HOP-92 NSCLC) | GI50 (SNB-75 CNS) | GI50 (OVCAR-4 ovarian) | GI50 (NCI/ADR-RES ovarian) | GI50 (HL-60(TB) leukemia) | GI50 (UACC-62 melanoma) | GI50 (HS 578T breast)
O=C(O)c1cc2ccc(Cl)cc2c(O)c1C1=CCCCC1 | > 100 µM | > 100 µM | 63.8 µM | 85.9 µM | 34.7 µM | 57.2 µM | > 100 µM | 77.5 µM |  |  |  |  |  |  |  |  |  |  |  | 
COc1cc([N+](=O)[O-])c(S(=O)(=O)O)cc1-[n+]1nc(C(=O)Nc2ccccc2)nn1-c1ccc([N+](=O)[O-])c(S(=O)(=O)[O-])c1 | > 100 µM | > 100 µM | > 100 µM |  | > 100 µM | > 100 µM | > 100 µM | > 100 µM | > 100 µM | > 100 µM |  |  |  |  |  |  |  |  |  | 
O=C(CC/C(CC(=O)c1ccc(Cl)cc1)=N\O)Nc1cccc(Cl)c1 | > 100 µM | > 100 µM | > 100 µM |  | > 100 µM | > 100 µM |  | > 100 µM |  |  |  |  |  |  |  |  |  |  |  | 
Nc1nc2c(ncn2C2OC(CO)C(O)C2O)c(=O)[nH]1 (stereo not given) | > 100 µM and 162 µM | > 100 µM and 154 µM | > 100 µM and 158 µM | > 100 µM and 263 µM | > 100 µM and 38 µM | > 100 µM and 215 µM | > 100 µM and 99.7 µM | > 100 µM and 175 µM |  | > 100 µM and 238 µM | > 100 µM | > 100 µM and 15.5 µM | > 100 µM | > 100 µM and 82.5 µM | > 100 µM | > 100000 nM | > 100 µM | > 100 µM | > 100 µM | 
NC(=O)C1C(=O)Oc2cccnc21 (stereo not given) | > 100 µM | > 100 µM |  |  | > 100 µM |  |  | > 100 µM |  |  |  |  |  |  |  |  |  |  |  | 
C=C(/C=C/C=C(\CO)CCC=C(C)C)[C@H]1CCC2([C@H](CCCO)/C(=C(/C)C=O)CC[C@]2(C)O)[C@H]1O (stereo not given in full) |  | > 100 µM | > 100 µM | > 100 µM | > 100 µM | > 100 µM | > 100 µM | > 100 µM |  |  |  |  |  |  |  |  |  |  |  | 
Cc1cc(=O)[nH]c2c1C(=O)c1c(C)cc(=O)n(C)c1C2=O | 0.195 µM | 0.364 µM | 0.0592 µM |  | 0.0325 µM | 0.378 µM | 0.374 µM | 0.0332 µM | 0.154 µM | 0.259 µM |  |  |  |  |  |  |  |  |  | 
CCOC(=O)C(=O)Nc1nc2ccc(OC)cc2s1 | > 100 µM | > 100 µM | > 100 µM | > 100 µM | > 100 µM | > 100 µM | > 100 µM | > 100 µM |  |  |  |  |  |  |  |  |  |  |  | 
CNC(=O)N(CCCCC(NC(C)=O)C(=O)NCc1ccccc1)Cc1ccccc1 (stereo not given) | > 100 µM | > 100 µM | > 100 µM | > 100 µM | > 100 µM | > 100 µM |  | > 100 µM |  |  |  |  |  |  |  |  |  |  |  | 
COc1ccc(S(=O)(=O)NNS(C)(=O)=O)cc1OC | > 100 µM | > 100 µM | > 100 µM |  | > 100 µM | > 100 µM | > 100 µM | > 100 µM |  |  |  |  |  |  |  |  |  |  |  | 
COc1cc2c(cc1OC)C(Sc1ccc(Cl)cc1)c1c(nc(N)c(C#N)c1N)O2 (stereo not given) | 2.94 µM | 3.74 µM | 2.55 µM | 3.19 µM | 2.42 µM | 2.96 µM | 3.73 µM | 2.66 µM | 6.43 µM |  | 1.51 µM | 1.65 µM | 1.2 µM | 1.51 µM | 1.14 µM | 1530 nM |  | 0.578 µM | 1.27 µM | 1.98 µM
O=C(/C=N/O)Nc1cccc(Cl)c1I | > 100 µM | > 100 µM | > 100 µM |  | 43.4 µM | > 100 µM | > 100 µM | > 100 µM |  |  |  |  |  |  |  |  |  |  |  | 
O=C(Nc1c(Cl)cc([N+](=O)[O-])cc1Cl)C(=O)C(C(=O)c1ccncc1)C1OC(=O)c2ccccc21 (stereo not given) | > 100 µM | > 100 µM |  | > 100 µM | > 100 µM | > 100 µM | > 100 µM | > 100 µM |  |  |  |  |  |  |  |  |  |  |  | 
Nc1cccc(C(=O)/C=C/c2ccccc2O)c1 | > 100 µM | > 100 µM | > 100 µM | > 100 µM | > 100 µM |  | 46.9 µM | > 100 µM |  |  |  |  |  |  |  |  |  |  |  | 
Cc1cc(N(CCC#N)CCC#N)ccc1/C=C1N=C(/C=C\c2ccccc2)N(c2ccc(C(=O)O)cc2)C\1=O | > 100 µM | > 100 µM | > 100 µM | > 100 µM | > 100 µM | > 100 µM | > 100 µM | > 100 µM |  |  |  |  |  |  |  |  |  |  |  | 
COc1ccc(C2C(C(=O)O)=C(COC(C)=O)Oc3cc4c(cc32)OCO4)c(OC)c1 (stereo not given) | > 100 µM | > 100 µM | > 100 µM | > 100 µM | > 100 µM | > 100 µM | > 100 µM | > 100 µM |  |  |  |  |  |  |  |  |  |  |  | 
CN(C)CN(C)c1nc(N(C)C)nc(N(C)C)n1 | > 100 µM | > 100 µM | > 100 µM | > 100 µM | > 100 µM | > 100 µM | > 100 µM | > 100 µM |  |  |  |  |  |  |  |  |  |  |  | 
CC(C)(C)OC(=O)CC(S(=O)(=O)c1ccccc1)S(=O)(=O)c1ccccc1 | 29.6 µM | 39.4 µM | 36.2 µM |  | 31.1 µM | 4.58 µM | 12.2 µM | 24.1 µM | 81.4 µM | 37.8 µM | 15.4 µM | 19.5 µM | 17 µM |  | 14.2 µM | 1960 nM | 17.4 µM | 3.19 µM | 11.4 µM | 22 µM
Cc1c(C(=O)/C=C/c2ccc3c(c2)OCO3)[n+](=O)c2ccccc2n1[O-] | > 100 µM | 75.6 µM |  | 69.7 µM | 68.6 µM | > 100 µM | > 100 µM | 75.2 µM |  |  |  |  |  |  |  |  |  |  |  | 
O=S1(=O)CS(=O)(=O)OCCCCCO1 | > 100 µM | > 100 µM | > 100 µM | > 100 µM | > 100 µM | > 100 µM |  | > 100 µM |  |  |  |  |  |  |  |  |  |  |  | 
COc1ccc(N=C2C(=O)Nc3ccc(Br)cc32)cc1 | 40.1 µM | 78.4 µM |  | 69 µM |  |  | 42.7 µM | 19.9 µM | > 100 µM | 87.9 µM |  |  |  |  |  |  |  |  |  | 
c1ccc2c(c1)n1nnnc1c1nnnn21 | > 100 µM | > 100 µM | > 100 µM | > 100 µM | 84.3 µM | > 100 µM |  | > 100 µM |  |  |  |  |  |  |  |  |  |  |  | 
COc1cc2c(c(OC)c1OC)-c1ccc(SC)c(=O)cc1C(CC(=O)Oc1ccccc1F)C2 (stereo not given) | > 7.5 µM | > 7.5 µM | 0.125 µM | > 7.5 µM | > 7.5 µM | > 7.5 µM | 1.37 µM | 0.0688 µM |  |  |  |  |  |  |  |  |  |  |  | 
